{"source": "patent US10329352B2", "about": "“Pyrrolobenzodiazepines and targeted conjugates” (priority 2011, dated 2019)", "assay_in_all_cases": "Free drug in vitro cytotoxicity (resazurin)", "assay_type_in_all_cases": "cell-based", "key": {"786-O": {"system": "786-O", "experimental": "(§1) Cells as detailed below were collected and plated in 96 well black-sided plates at a density of 10,000 cells/well in 150 μL of medium. […] Resazurin (0.25 mM, 50 μL, Sigma, St. Louis, Mo.) in medium was added and incubation was continued for 4 hours. The plates were read on a Fusion HT microplate reader (Packard, Meriden, Conn.) using an excitation wavelength of 525 nm and an emission wavelength of 590 nm. Data from all assays were reduced using GraphPad Prism Version 4 for Windows (GraphPad Software, San Diego, Calif.). The IC50 concentrations compared to untreated control cells were determined using a 4 parameter curve fits."}, "Caki-1": {"system": "Caki-1", "experimental": "as §1"}, "HEL9217": {"system": "HEL9217", "experimental": "as §1"}, "HL60": {"system": "HL60", "experimental": "as §1"}}, "data": [{"smiles": "COc1cc2c(cc1OCCCOc1cc3c(cc1OC)C(=O)N1C=C(c4ccc(O)cc4)C[C@H]1C=N3)N=C[C@@H]1CC(c3ccc(N)cc3)=CN1C2=O", "note": "[compound 14]", "values": [{"measurement": "IC50", "setting": "786-O; following 48 hours treatment", "value": 200, "unit": "pM"}, {"measurement": "IC50", "setting": "Caki-1; following 48 hours treatment", "value": 400, "unit": "pM"}, {"measurement": "IC50", "setting": "HEL9217; following 48 hours treatment", "value": 50, "unit": "pM"}, {"measurement": "IC50", "setting": "HL60; following 48 hours treatment", "value": 30, "unit": "pM"}]}, {"smiles": "COC(=O)c1ccc(C2=CN3C(=O)c4cc(OC)c(OCCCCCOc5cc6c(cc5OC)C(=O)N5C=C(c7ccc(N)cc7)C[C@H]5C=N6)cc4N=C[C@@H]3C2)cc1", "note": "[compound 4, (S)-2-(4-aminophenyl)-7-methoxy-8-(5-((S)-7-methoxy-2-(4-methyloxycarbonylphenyl)-5-oxo-5,11a-dihydro-1H-pyrrolo[2,1-c][1,4]benzodiazepin-8-yloxy)pentyloxy)-1H-pyrrolo[2,1-c][1,4]benzodiazepine-5(11aH)-one]", "values": [{"measurement": "IC50", "setting": "786-O; Homo sapiens, 786-0, following 48 hours treatment", "value": 50, "unit": "pM"}, {"measurement": "IC50", "setting": "Caki-1; Homo sapiens, CAKI-1, following 48 hours treatment", "value": 20, "unit": "pM"}, {"measurement": "IC50", "setting": "HEL9217; Homo sapiens, HEL 92.1.7, following 48 hours treatment", "value": 8, "unit": "pM"}, {"measurement": "IC50", "setting": "HL60; Homo sapiens, HL-60, following 48 hours treatment", "value": 8, "unit": "pM"}]}]}
